{"source": "paper PMC8037182", "about": "“Solvothermal Synthesis of Multiple Dihydropyrimidinones at a Time as Inhibitors of Eg5” (Molecules, 2021)", "system": "L929 cell line", "assay": "Cytotoxicity MTS assay, L929 cell line", "type": "cell-based", "settings": "for OD490 values, Mean / OD490 values, Well 1 / OD490 values, Well 2 / OD490 values, Well 3: L929 cell line; for pIC50: MTS assay, 24 h exposure, ordinary fibroblast, not cancer cells", "procedure": "The positive compounds (IC50 < 100 μM) obtained from the primary Eg5 motor protein ATPase assay were tested for antiproliferative activity in vitro against Caco-2 cell line, Hela cell line, L929 cell line and T24 cell line by performing MTS assay. Cells were introduced into 96-well plates at a density of 1000 cells per well. After 24 h incubation, the cells were exposed with compounds at final concentrations ranging from 0.5 to 100 µM for 24 h. DMSO was used at a final concentration of 0.025% as blank control, monastrol was used as the positive control. Then 20 µL (CellTiter 96® AQueous One Solution Promega, Madison, WI, USA) reagent was added in each well. After 2 h at 37 °C in a 80% humidified, 5% CO2 atmosphere, the absorbance at 490 nm was recorded using a microplate reader (BIO-RAD iMark^TM). The results were obtained in three independent duplicate experiments. The primary data were shown in Supplementary Materials Tables S4–S7. The IC50 values for these compounds were calculated from a non-linear regression graph plotted between the percentage of cell viability and concentration with SPSS17.0 software.", "note": "pIC50: −log10 of the molar value."}
{"smiles": "CCOC(=O)c1[nH]c(C2NC(=O)NC(C)=C2C(=O)Nc2ccccc2OC)c(C(=O)OC)c1C", "note": "(centres unmarked) [D3]", "values": [{"measurement": "OD490 values, Mean", "setting": "0.5μM, first assay", "value": 1.3020}, {"measurement": "OD490 values, Well 1", "setting": "0.5μM, first assay", "value": 1.4715}, {"measurement": "OD490 values, Well 2", "setting": "0.5μM, first assay", "value": 1.2756}, {"measurement": "OD490 values, Well 3", "setting": "0.5μM, first assay", "value": 1.1589}, {"measurement": "OD490 values, Mean", "setting": "1μM, first assay", "value": 1.3230}, {"measurement": "OD490 values, Well 1", "setting": "1μM, first assay", "value": 1.4997}, {"measurement": "OD490 values, Well 2", "setting": "1μM, first assay", "value": 1.2316}, {"measurement": "OD490 values, Well 3", "setting": "1μM, first assay", "value": 1.2376}, {"measurement": "OD490 values, Mean", "setting": "10μM, first assay", "value": 1.3760}, {"measurement": "OD490 values, Well 1", "setting": "10μM, first assay", "value": 1.4568}, {"measurement": "OD490 values, Well 2", "setting": "10μM, first assay", "value": 1.4534}, {"measurement": "OD490 values, Well 3", "setting": "10μM, first assay", "value": 1.2179}, {"measurement": "OD490 values, Mean", "setting": "25μM, first assay", "value": 1.2499}, {"measurement": "OD490 values, Well 1", "setting": "25μM, first assay", "value": 1.2312}, {"measurement": "OD490 values, Well 2", "setting": "25μM, first assay", "value": 1.2473}, {"measurement": "OD490 values, Well 3", "setting": "25μM, first assay", "value": 1.2712}, {"measurement": "OD490 values, Mean", "setting": "50μM, first assay", "value": 1.1939}, {"measurement": "OD490 values, Well 1", "setting": "50μM, first assay", "value": 1.2135}, {"measurement": "OD490 values, Well 2", "setting": "50μM, first assay", "value": 1.2454}, {"measurement": "OD490 values, Well 3", "setting": "50μM, first assay", "value": 1.1229}, {"measurement": "OD490 values, Mean", "setting": "100μM, first assay", "value": 1.1051}, {"measurement": "OD490 values, Well 1", "setting": "100μM, first assay", "value": 1.0930}, {"measurement": "OD490 values, Well 2", "setting": "100μM, first assay", "value": 1.2053}, {"measurement": "OD490 values, Well 3", "setting": "100μM, first assay", "value": 1.0171}, {"measurement": "pIC50", "value": "< 3.82"}]}
{"smiles": "CCOC(=O)c1[nH]c(C2NC(=O)NC(C)=C2C(=O)Nc2ccccc2C)c(C(=O)OC)c1C", "note": "(centres unmarked) [D4]", "values": [{"measurement": "OD490 values, Mean", "setting": "0.5μM, first assay", "value": 1.2390}, {"measurement": "OD490 values, Well 1", "setting": "0.5μM, first assay", "value": 1.2664}, {"measurement": "OD490 values, Well 2", "setting": "0.5μM, first assay", "value": 1.2769}, {"measurement": "OD490 values, Well 3", "setting": "0.5μM, first assay", "value": 1.1737}, {"measurement": "OD490 values, Mean", "setting": "0.5μM, second assay", "value": 1.6699}, {"measurement": "OD490 values, Well 1", "setting": "0.5μM, second assay", "value": 1.5847}, {"measurement": "OD490 values, Well 2", "setting": "0.5μM, second assay", "value": 1.7925}, {"measurement": "OD490 values, Well 3", "setting": "0.5μM, second assay", "value": 1.6324}, {"measurement": "OD490 values, Mean", "setting": "0.5μM, third assay", "value": 1.6193}, {"measurement": "OD490 values, Well 1", "setting": "0.5μM, third assay", "value": 1.5741}, {"measurement": "OD490 values, Well 2", "setting": "0.5μM, third assay", "value": 1.5987}, {"measurement": "OD490 values, Well 3", "setting": "0.5μM, third assay", "value": 1.6852}, {"measurement": "OD490 values, Mean", "setting": "1μM, first assay", "value": 1.1804}, {"measurement": "OD490 values, Well 1", "setting": "1μM, first assay", "value": 1.2290}, {"measurement": "OD490 values, Well 2", "setting": "1μM, first assay", "value": 1.2817}, {"measurement": "OD490 values, Well 3", "setting": "1μM, first assay", "value": 1.0306}, {"measurement": "OD490 values, Mean", "setting": "1μM, second assay", "value": 1.6792}, {"measurement": "OD490 values, Well 1", "setting": "1μM, second assay", "value": 1.5848}, {"measurement": "OD490 values, Well 2", "setting": "1μM, second assay", "value": 1.6985}, {"measurement": "OD490 values, Well 3", "setting": "1μM, second assay", "value": 1.7542}, {"measurement": "OD490 values, Mean", "setting": "1μM, third assay", "value": 1.5459}, {"measurement": "OD490 values, Well 1", "setting": "1μM, third assay", "value": 1.5698}, {"measurement": "OD490 values, Well 2", "setting": "1μM, third assay", "value": 1.5478}, {"measurement": "OD490 values, Well 3", "setting": "1μM, third assay", "value": 1.5202}, {"measurement": "OD490 values, Mean", "setting": "10μM, first assay", "value": 1.0446}, {"measurement": "OD490 values, Well 1", "setting": "10μM, first assay", "value": 1.1408}, {"measurement": "OD490 values, Well 2", "setting": "10μM, first assay", "value": 0.9532}, {"measurement": "OD490 values, Well 3", "setting": "10μM, first assay", "value": 1.0397}, {"measurement": "OD490 values, Mean", "setting": "10μM, second assay", "value": 1.6098}, {"measurement": "OD490 values, Well 1", "setting": "10μM, second assay", "value": 1.5562}, {"measurement": "OD490 values, Well 2", "setting": "10μM, second assay", "value": 1.5879}, {"measurement": "OD490 values, Well 3", "setting": "10μM, second assay", "value": 1.6852}, {"measurement": "OD490 values, Mean", "setting": "10μM, third assay", "value": 1.5291}, {"measurement": "OD490 values, Well 1", "setting": "10μM, third assay", "value": 1.5364}, {"measurement": "OD490 values, Well 2", "setting": "10μM, third assay", "value": 1.5879}, {"measurement": "OD490 values, Well 3", "setting": "10μM, third assay", "value": 1.4630}, {"measurement": "OD490 values, Mean", "setting": "25μM, first assay", "value": 0.9627}, {"measurement": "OD490 values, Well 1", "setting": "25μM, first assay", "value": 0.8216}, {"measurement": "OD490 values, Well 2", "setting": "25μM, first assay", "value": 0.8395}, {"measurement": "OD490 values, Well 3", "setting": "25μM, first assay", "value": 1.2269}, {"measurement": "OD490 values, Mean", "setting": "25μM, second assay", "value": 1.4236}, {"measurement": "OD490 values, Well 1", "setting": "25μM, second assay", "value": 1.4545}, {"measurement": "OD490 values, Well 2", "setting": "25μM, second assay", "value": 1.4879}, {"measurement": "OD490 values, Well 3", "setting": "25μM, second assay", "value": 1.3285}, {"measurement": "OD490 values, Mean", "setting": "25μM, third assay", "value": 1.2968}, {"measurement": "OD490 values, Well 1", "setting": "25μM, third assay", "value": 1.3325}, {"measurement": "OD490 values, Well 2", "setting": "25μM, third assay", "value": 1.3214}, {"measurement": "OD490 values, Well 3", "setting": "25μM, third assay", "value": 1.2365}, {"measurement": "OD490 values, Mean", "setting": "50μM, first assay", "value": 0.9261}, {"measurement": "OD490 values, Well 1", "setting": "50μM, first assay", "value": 0.8106}, {"measurement": "OD490 values, Well 2", "setting": "50μM, first assay", "value": 0.9635}, {"measurement": "OD490 values, Well 3", "setting": "50μM, first assay", "value": 1.0043}, {"measurement": "OD490 values, Mean", "setting": "50μM, second assay", "value": 1.2976}, {"measurement": "OD490 values, Well 1", "setting": "50μM, second assay", "value": 1.3201}, {"measurement": "OD490 values, Well 2", "setting": "50μM, second assay", "value": 1.2240}, {"measurement": "OD490 values, Well 3", "setting": "50μM, second assay", "value": 1.3487}, {"measurement": "OD490 values, Mean", "setting": "50μM, third assay", "value": 1.2105}, {"measurement": "OD490 values, Well 1", "setting": "50μM, third assay", "value": 1.1145}, {"measurement": "OD490 values, Well 2", "setting": "50μM, third assay", "value": 1.2301}, {"measurement": "OD490 values, Well 3", "setting": "50μM, third assay", "value": 1.2869}, {"measurement": "OD490 values, Mean", "setting": "100μM, first assay", "value": 0.7075}, {"measurement": "OD490 values, Well 1", "setting": "100μM, first assay", "value": 0.8384}, {"measurement": "OD490 values, Well 2", "setting": "100μM, first assay", "value": 0.6461}, {"measurement": "OD490 values, Well 3", "setting": "100μM, first assay", "value": 0.6379}, {"measurement": "OD490 values, Mean", "setting": "100μM, second assay", "value": 0.8731}, {"measurement": "OD490 values, Well 1", "setting": "100μM, second assay", "value": 0.9062}, {"measurement": "OD490 values, Well 2", "setting": "100μM, second assay", "value": 0.8662}, {"measurement": "OD490 values, Well 3", "setting": "100μM, second assay", "value": 0.8469}, {"measurement": "OD490 values, Mean", "setting": "100μM, third assay", "value": 0.8397}, {"measurement": "OD490 values, Well 1", "setting": "100μM, third assay", "value": 0.8652}, {"measurement": "OD490 values, Well 2", "setting": "100μM, third assay", "value": 0.7214}, {"measurement": "OD490 values, Well 3", "setting": "100μM, third assay", "value": 0.9325}, {"measurement": "pIC50", "value": 4.02}]}
